Measured values reported in patent publication US20160184274A1, “Methods for inhibiting mesenchymal phenotype after epithelial-to-mesenchymal transition” (Fibrostatin, S.L., priority 2014, published 2016).

Experiments:
[1] = system: mesenchymal A549 spheroids; experiment: Collagen network in mesenchymal spheroids, confocal microscopy; assay type: cell-based, Human
Experimental: FIG. 7. T12 disrupts collagen IV network and reduces A549 mesenchymal spheroids viability. A549 spheroids were subjected to EMT induction with TGF-β and TNF-α during 4 days, and treated with T12 (10 μM) or maintained untreated (Cont) for the last 2 days. In A, spheroids were analyzed by immunofluorescence confocal microscopy with anti-α1α2 (IV) antibodies (COL4, white) and DAPI to visualize the cell nuclei (grey). In B, the culture media of the spheroids in A were used for assessing cell death by measuring LDH activity. […] Represented are Means (±SEM).
Three-dimensional spheroid cultures of A549 cells were obtained using a hanging droplet method (Kelm et al., 2003. Biotechnol. Bioeng. 83: 173-180.; Kumar et al., 2013. PLoS One. 8: e68597). Briefly, cells were grown to approximately 80% confluence on adherent tissue-culture flasks. Then cells were trypsinized, dispersed in DMEM/10% FBS, and counted using an automated cell counter (MOXI® Z, Orflo). The cell suspension was diluted to a 10^6 cells/mL-concentration, and 25 μl of the cell suspension were pipetted onto the underside of a sterile 10-cm tissue culture plate lid. Each lid was loaded with approximately 55 droplets. After loading, the lid was placed onto a tissue culture plate containing 6 mL of sterile PBS (phosphate-buffered saline) and incubated for 48 hours to facilitate spheroid formation. […]

[2] = system: A549 cells expressing GPBP-EYFP; experiment: GPBP-induced phenotype transition, Western blot of markers; assay type: cell-based, Human; settings: T12 10 μM, 24 h; FIG. 4
Experimental: FIG. 4. T12 inhibits GPBP-induced phenotype transition in A549 cultures. A549 cells expressing either GPBP-EYFP fusion protein or EYFP were cultured during 24 h in the presence (+) or absence (−) of T12 (10 μM.) Then cells were lysed and similar amounts of lysates were analyzed by Western blot with antibodies against the indicated proteins. Loading equivalence was confirmed by tubulin expression analysis in each of the individual experiments (not shown). To generate cells expressing GPBP fused to Enhanced Yellow Fluorescent Protein (GPBP-EYFP) or EYFP, A549 cells were transfected either with pEYFP-N1-GPBP construct or with pEYFP-N1 vector (Clontech), expressing GPBP-EYFP and EYFP, respectively. Transfected cells were selected with 400 mg/L of geniticin and clones were isolated with a High SPEED CELL SORTER MOFLO® (Beckman-Coulter) and further cultured. Recombinant protein expression was assessed by immunofluorescence microscopy and by Western blot with anti-GPBP N27 mouse monoclonal antibodies. For Western blot analysis, cells were lysed in TBS supplemented with 1% Triton X-100, 0.1% SDS, 1 mM PMSF, 10 μg/mL leupeptine and 20 mM NaF during 30 min at 4° C. Lysates were centrifuged (16,000×g, 5 min, 4° C.) and supernatants were collected and protein concentration determined (Bio-Rad Protein Assay). Samples were subjected to reducing SDS-PAGE and electro-transference onto PVDF membrane. […]

COc1ccc(-c2ccc(-c3cccc(C)c3)c(C)c2)c(CCC(=O)O)c1 [T12, 3-[4″-methoxy-3,2′-dimethyl-(1,1′;4′,1″)terphenyl-2″-yl] propionic acid]
collagen IV network formation ([1]; T12 10 μM for the last 2 days of 4-day EMT induction with TGF-β and TNF-α, FIG. 7A): inhibited collagen IV network formation
fibrillary collagen I ([1]; data not shown): sharply reduced fibrillary collagen I
effect on GPBP-EYFP-induced changes of vimentin, phospho p70-S6 kinase and E-cadherin [2]: counteracted all these regulatory effects
